Active and inactive are the calls of the source. The calls are words filed in the database; no cut-off is given here.

The target in test [1] is Histone deacetylase 4 (Homo sapiens) (UniProt P56524). The test can be described thus: Activation of HDAC4 using trifluoroacetyl-lysine containing fluorogenic substrate at 100 uM by spectrofluorometry.
Test [2] deals with Histone deacetylase 3 (Homo sapiens) (UniProt O15379). The test can be described thus: Activation of HDAC3 using Fluor-de-Lys as substrate at 100 uM by spectrofluorometry.
For test [3], the target named is Histone deacetylase 4 (Homo sapiens) (UniProt P56524). In words: Inhibition of HDAC4 using trifluoroacetyl-lysine containing fluorogenic substrate at 100 uM by spectrofluorometry.
Test [4] deals with T1, Polyamine deacetylase HDAC10 (Homo sapiens) (UniProt Q969S8).
T1 sequence (whole entry): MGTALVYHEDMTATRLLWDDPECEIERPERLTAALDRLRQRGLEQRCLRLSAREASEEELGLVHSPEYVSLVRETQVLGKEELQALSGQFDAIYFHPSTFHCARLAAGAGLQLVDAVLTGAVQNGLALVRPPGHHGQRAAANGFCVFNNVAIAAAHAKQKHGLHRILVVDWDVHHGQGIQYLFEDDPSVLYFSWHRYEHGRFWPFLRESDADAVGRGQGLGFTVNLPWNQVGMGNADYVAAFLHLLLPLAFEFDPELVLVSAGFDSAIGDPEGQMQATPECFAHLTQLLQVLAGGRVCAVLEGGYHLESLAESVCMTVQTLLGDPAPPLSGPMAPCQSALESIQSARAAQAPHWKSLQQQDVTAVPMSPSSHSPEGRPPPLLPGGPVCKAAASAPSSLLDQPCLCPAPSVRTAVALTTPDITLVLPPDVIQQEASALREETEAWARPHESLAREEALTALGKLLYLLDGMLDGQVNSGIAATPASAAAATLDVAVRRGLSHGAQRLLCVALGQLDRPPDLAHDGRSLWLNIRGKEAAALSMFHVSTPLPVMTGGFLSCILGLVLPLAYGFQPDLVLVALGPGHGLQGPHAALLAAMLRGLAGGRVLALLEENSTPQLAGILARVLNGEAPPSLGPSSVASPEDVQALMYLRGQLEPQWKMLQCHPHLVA
In words: Activation of HDAC10 using Fluor-de-Lys as substrate at 100 uM by spectrofluorometry.

For test [5], the target named is Histone deacetylase 4 (Homo sapiens) (UniProt P56524). In words: Activation of HDAC4 using trifluoroacetyl-lysine containing fluorogenic substrate at 10 uM by spectrofluorometry.
The target of test [6] is T2, Protein deacetylase HDAC6 (Homo sapiens) (UniProt Q9UBN7).
T2 sequence (whole entry): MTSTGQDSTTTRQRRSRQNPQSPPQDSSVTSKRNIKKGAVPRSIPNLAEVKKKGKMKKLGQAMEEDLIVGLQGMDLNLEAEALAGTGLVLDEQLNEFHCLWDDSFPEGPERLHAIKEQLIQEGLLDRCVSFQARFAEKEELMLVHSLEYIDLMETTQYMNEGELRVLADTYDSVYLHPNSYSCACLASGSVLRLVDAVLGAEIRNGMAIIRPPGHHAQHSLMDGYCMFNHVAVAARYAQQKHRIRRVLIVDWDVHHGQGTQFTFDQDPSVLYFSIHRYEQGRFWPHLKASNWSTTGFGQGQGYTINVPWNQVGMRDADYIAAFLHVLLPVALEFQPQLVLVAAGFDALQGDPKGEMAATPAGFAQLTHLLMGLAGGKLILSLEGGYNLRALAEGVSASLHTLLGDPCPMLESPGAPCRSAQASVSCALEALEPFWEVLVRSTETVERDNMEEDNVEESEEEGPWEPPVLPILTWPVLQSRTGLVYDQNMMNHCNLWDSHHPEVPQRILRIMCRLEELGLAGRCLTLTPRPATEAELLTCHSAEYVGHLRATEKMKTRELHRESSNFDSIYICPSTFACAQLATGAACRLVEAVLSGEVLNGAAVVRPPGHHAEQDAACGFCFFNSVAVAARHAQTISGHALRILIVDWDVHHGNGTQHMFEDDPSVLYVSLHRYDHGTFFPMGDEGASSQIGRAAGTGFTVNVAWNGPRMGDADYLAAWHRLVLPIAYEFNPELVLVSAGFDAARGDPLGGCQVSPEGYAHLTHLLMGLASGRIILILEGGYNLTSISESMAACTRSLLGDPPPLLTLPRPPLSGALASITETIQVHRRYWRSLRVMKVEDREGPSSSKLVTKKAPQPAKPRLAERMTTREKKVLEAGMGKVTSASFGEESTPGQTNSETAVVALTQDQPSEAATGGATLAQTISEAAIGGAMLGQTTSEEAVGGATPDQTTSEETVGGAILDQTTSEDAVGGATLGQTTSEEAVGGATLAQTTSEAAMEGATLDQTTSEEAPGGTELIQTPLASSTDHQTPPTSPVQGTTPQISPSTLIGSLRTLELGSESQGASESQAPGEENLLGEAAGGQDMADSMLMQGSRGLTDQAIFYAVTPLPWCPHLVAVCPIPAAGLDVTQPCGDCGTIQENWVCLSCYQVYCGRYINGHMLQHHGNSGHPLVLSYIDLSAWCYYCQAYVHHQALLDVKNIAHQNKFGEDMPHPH
In words: Activation of HDAC6 using Fluor-de-Lys as substrate at 10 uM by spectrofluorometry.

For test [7], the target named is T3, Histone deacetylase 8 (Homo sapiens) (UniProt Q9BY41).
T3 sequence (whole entry): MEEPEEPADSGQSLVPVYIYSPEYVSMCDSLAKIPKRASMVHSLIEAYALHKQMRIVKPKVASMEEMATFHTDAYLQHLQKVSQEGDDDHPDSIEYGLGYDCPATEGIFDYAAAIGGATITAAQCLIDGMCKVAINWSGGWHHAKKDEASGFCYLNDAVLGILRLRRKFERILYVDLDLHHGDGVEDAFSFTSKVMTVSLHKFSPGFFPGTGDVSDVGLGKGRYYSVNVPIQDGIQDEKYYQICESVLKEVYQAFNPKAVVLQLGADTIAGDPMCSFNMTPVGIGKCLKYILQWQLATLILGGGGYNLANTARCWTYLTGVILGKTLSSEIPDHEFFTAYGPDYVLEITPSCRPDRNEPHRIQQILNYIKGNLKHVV
In words: Activation of recombinant human HDAC8 assessed as ratio of the initial rate of reaction in the absence and presence of compound using Fluor-de-Lys as substrate at 10 uM by spectrofluorometry.

Test [8] addresses T1, Polyamine deacetylase HDAC10 (Homo sapiens). The test can be described thus: Activation of HDAC10 using Fluor-de-Lys as substrate at 10 uM by spectrofluorometry.
In test [9] the target is T4, Histone deacetylase 11 (Homo sapiens) (UniProt Q96DB2).
T4 sequence (whole entry): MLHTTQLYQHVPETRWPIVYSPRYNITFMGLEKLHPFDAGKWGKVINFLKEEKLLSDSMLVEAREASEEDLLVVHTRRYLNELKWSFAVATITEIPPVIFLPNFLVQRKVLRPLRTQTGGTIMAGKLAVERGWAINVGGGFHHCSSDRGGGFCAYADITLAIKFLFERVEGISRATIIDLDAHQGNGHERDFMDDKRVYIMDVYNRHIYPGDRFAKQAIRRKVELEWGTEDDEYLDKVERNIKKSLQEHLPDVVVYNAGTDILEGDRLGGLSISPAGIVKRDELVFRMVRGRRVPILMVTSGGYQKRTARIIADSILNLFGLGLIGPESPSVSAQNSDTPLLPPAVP
The test can be described thus: Activation of HDAC11 using Fluor-de-Lys as substrate at 10 uM by spectrofluorometry.

Test [10] has as its target Histone deacetylase 2 (Homo sapiens) (UniProt Q92769). The test can be described thus: Activation of HDAC2 using Fluor-de-Lys as substrate at 10 uM by spectrofluorometry.
The target in test [11] is Histone deacetylase 3 (Homo sapiens) (UniProt O15379). In words: Activation of HDAC3 using Fluor-de-Lys as substrate at 10 uM by spectrofluorometry.
Test [12] concerns the target T1, Polyamine deacetylase HDAC10 (Homo sapiens). In words: Inhibition of HDAC10 using Fluor-de-Lys as substrate at 100 uM by spectrofluorometry.
Test [13] addresses T4, Histone deacetylase 11 (Homo sapiens). In words: Activation of HDAC11 using Fluor-de-Lys as substrate at 100 uM by spectrofluorometry.
In test [14] the target is T2, Protein deacetylase HDAC6 (Homo sapiens). The test can be described thus: Inhibition of HDAC6 using Fluor-de-Lys as substrate at 100 uM by spectrofluorometry.
The target of test [15] is Histone deacetylase 1 (Homo sapiens) (UniProt Q13547). The test can be described thus: Inhibition of HDAC1 using Fluor-de-Lys as substrate at 100 uM by spectrofluorometry.
Test [16] concerns the target Histone deacetylase 2 (Homo sapiens) (UniProt Q92769). The test can be described thus: Activation of HDAC2 using Fluor-de-Lys as substrate at 100 uM by spectrofluorometry.
For test [17] the target is unchanged. In words: Inhibition of HDAC2 using Fluor-de-Lys as substrate at 100 uM by spectrofluorometry.
The target of test [18] is Histone deacetylase 3 (Homo sapiens) (UniProt O15379). The test can be described thus: Inhibition of HDAC3 using Fluor-de-Lys as substrate at 100 uM by spectrofluorometry.
The target in test [19] is T2, Protein deacetylase HDAC6 (Homo sapiens). In words: Activation of HDAC6 using Fluor-de-Lys as substrate at 100 uM by spectrofluorometry.
The target of test [20] is T4, Histone deacetylase 11 (Homo sapiens). The test can be described thus: Inhibition of HDAC11 using Fluor-de-Lys as substrate at 100 uM by spectrofluorometry.
In test [21] the target is Histone deacetylase 1 (Homo sapiens) (UniProt Q13547). In words: Activation of HDAC1 using Fluor-de-Lys as substrate at 100 uM by spectrofluorometry.
For test [22] the target is unchanged. In words: Activation of HDAC1 using Fluor-de-Lys as substrate at 10 uM by spectrofluorometry.

Sequence of Histone deacetylase 2 (Homo sapiens) (Q92769 whole entry): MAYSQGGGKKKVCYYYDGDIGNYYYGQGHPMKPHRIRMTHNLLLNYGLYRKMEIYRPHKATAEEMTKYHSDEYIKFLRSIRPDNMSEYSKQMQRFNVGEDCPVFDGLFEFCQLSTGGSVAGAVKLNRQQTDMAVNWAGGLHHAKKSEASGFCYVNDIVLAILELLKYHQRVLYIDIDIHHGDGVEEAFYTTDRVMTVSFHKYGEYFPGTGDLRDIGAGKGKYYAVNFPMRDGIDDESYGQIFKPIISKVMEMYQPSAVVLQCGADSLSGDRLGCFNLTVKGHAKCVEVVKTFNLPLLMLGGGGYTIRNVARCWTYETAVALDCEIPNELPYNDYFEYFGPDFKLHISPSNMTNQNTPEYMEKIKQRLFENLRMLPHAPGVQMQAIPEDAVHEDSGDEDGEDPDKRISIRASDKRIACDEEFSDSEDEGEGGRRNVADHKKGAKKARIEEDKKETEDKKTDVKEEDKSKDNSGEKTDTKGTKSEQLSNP
Sequence of Histone deacetylase 3 (Homo sapiens) (O15379 whole entry): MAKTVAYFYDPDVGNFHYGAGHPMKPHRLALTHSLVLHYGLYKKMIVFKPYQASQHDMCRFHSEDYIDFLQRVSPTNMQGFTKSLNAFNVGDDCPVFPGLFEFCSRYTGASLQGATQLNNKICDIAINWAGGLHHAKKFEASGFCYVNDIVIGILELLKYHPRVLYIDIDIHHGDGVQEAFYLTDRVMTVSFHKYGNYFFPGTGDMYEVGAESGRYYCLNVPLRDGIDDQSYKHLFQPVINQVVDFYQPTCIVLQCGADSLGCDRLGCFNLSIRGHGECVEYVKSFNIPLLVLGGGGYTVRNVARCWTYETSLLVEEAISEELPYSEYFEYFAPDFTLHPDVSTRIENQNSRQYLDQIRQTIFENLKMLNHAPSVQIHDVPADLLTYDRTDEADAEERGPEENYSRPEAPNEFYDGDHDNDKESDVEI
Sequence of Histone deacetylase 4 (Homo sapiens) (P56524 whole entry): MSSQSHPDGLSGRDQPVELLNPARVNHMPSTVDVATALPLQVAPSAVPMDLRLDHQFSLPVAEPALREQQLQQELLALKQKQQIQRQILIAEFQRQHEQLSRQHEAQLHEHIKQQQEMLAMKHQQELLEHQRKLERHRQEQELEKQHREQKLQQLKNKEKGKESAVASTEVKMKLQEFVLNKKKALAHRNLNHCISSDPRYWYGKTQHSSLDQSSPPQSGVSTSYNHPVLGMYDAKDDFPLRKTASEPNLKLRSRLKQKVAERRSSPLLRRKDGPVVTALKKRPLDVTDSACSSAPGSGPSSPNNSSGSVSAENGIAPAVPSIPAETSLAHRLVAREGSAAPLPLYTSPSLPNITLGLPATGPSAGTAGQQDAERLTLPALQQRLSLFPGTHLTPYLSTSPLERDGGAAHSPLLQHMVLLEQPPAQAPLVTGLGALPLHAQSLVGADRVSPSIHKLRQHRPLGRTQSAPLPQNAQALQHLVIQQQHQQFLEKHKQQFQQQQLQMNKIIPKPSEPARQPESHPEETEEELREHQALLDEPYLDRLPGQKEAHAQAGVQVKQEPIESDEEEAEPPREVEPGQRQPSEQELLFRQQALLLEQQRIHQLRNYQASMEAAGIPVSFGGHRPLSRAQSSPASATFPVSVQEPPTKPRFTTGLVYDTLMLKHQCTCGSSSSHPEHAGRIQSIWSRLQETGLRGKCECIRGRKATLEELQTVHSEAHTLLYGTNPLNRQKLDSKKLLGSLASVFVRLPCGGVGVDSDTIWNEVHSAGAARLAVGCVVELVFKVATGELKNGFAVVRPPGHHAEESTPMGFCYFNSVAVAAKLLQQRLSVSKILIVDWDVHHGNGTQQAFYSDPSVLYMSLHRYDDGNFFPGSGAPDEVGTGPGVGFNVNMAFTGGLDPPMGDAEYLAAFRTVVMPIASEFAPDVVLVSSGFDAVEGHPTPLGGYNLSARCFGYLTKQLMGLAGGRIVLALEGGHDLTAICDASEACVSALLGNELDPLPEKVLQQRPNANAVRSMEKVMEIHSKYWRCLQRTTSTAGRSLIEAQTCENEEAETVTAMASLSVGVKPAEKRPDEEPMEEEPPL
Sequence of Histone deacetylase 1 (Homo sapiens) (Q13547 whole entry): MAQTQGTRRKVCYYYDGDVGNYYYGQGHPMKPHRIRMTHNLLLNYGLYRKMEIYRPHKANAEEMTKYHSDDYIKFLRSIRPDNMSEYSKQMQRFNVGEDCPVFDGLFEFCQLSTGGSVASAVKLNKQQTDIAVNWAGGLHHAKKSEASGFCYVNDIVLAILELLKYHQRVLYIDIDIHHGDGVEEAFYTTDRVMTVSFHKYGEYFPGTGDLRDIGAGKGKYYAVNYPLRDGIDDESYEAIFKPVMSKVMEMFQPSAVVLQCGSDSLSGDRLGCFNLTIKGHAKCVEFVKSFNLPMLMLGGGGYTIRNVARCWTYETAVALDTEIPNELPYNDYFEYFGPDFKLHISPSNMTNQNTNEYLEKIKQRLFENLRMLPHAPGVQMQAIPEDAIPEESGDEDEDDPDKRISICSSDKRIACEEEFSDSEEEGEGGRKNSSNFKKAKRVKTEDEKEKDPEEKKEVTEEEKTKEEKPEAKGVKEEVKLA

The inhibition is the change of the read-out against control, counted positive when it falls. For the compound `O=C(NC(=S)Nc1ccccc1)c1ccccc1F`, the result in test [1], in [2], in test [4], in test [5], in test [6] and in test [8] was inactive. Moreover, the result in test [9], in test [10], in [11], in test [13], in [16] and in test [19] was inactive. For the same compound, the inhibition result in [3], in test [12], in test [14], in [17], in test [18] and in test [20] was “inactive” in each case. In addition, the fold change (FC) in test [7] is 3.5. In [15], the inhibition is 5%.

Consider `O=C(NC(=S)NCc1ccc(F)cc1)c1ccccc1`, for which the outcome in [1], in [2], in test [4], in test [5], in [6] and in test [8] was inactive. The result in test [10], in test [11], in [16] and in test [19] was inactive. Also, the inhibition result in test [3], in test [12], in test [14], in test [17] and in test [18] was “inactive” each time. For the same compound, the fold change (FC) in [7] was 3. Also, the inhibition in test [15] stood at 5%; in test [20] it was 6%.

With `O=C(NC(=S)NCCc1ccccc1)c1ccccc1`, the result in [1], in [2], in test [4], in [5], in test [6] and in [21] was inactive. Further, the result in test [8], in test [10], in [11], in test [22], in [16] and in test [19] was inactive. In addition, the inhibition entry in [3], in [12], in [14], in test [15], in [17] and in test [18] was “inactive” in each case. For the same compound, the fold change (FC) in [7] was 2. For the same compound, the inhibition in test [20] stood at 6%.

As to `O=C(NC(=S)NCc1ccc(C(F)(F)F)cc1)c1ccccc1`, the result in test [1], in test [4], in test [5], in test [6], in test [21] and in test [8] was inactive. The outcome in [9], in test [13], in test [22] and in test [19] was inactive. The inhibition result in test [3], in [12], in test [14], in test [15] and in test [20] was “inactive” each time. Further, in test [7], the fold change (FC) amounted to 1.2. Besides, the inhibition amounted to 7% in test [17] and 5% in [18].

In the case of `O=C(NC(=S)NCc1ccccc1)c1ccccc1F`, the result in [1], in test [2], in test [5], in test [6], in [21] and in test [10] was inactive. Also, the outcome in test [11], in test [22], in [16] and in test [19] was inactive. Besides, the inhibition result in [3], in test [14], in test [15], in [17] and in [18] was “inactive” throughout. The fold change (FC) in test [7] was 1. The inhibition in test [12] came out at 5%; in test [20], 14%.
